This note sets out measurements from US20090062273A1, “3-H-pyrazolopyridines and salts thereof, pharmaceutical compositions comprising same, methods of preparing same and uses of same” (priority 2006, published 2009).

In this assay the target is T1, human insuline receptor (Ins-R) (Homo sapiens, UniProt P06213).
T1 construct: GST-tagged recombinant kinase domain of the human insuline receptor; GST; purchased ProQinase, Freiburg, Germany; host or cells: SF-9 cells
Put plainly: InsR HTRF assay (selectivity vs. Tie2 assay 2). In kind it is biochemical. Particulars: IC50 assay 4/IC50 assay 2. How it is done: Inhibitory activity of compounds against the kinase activity of the insulin receptor was quantified employing the Ins-R HTRF assay as described in the following paragraphs.
GST-tagged recombinant kinase domain of the human insuline receptor (Ins-R, purchase from ProQinase, Freiburg, Germany) expressed in SF-9 cells was used as kinase. As substrate for the kinase reaction biotinylated poly-(Glu,Tyr) (Cis biointernational, France) was used.
Ins-R was incubated for 20 min at 22° C. in the presence of different concentrations of test compounds in 5 μl assay buffer [50 mM Hepes/NaOH pH 7, 15 mM MnCl2, 1 mM dithiothreitol, 0.1 μM sodium ortho-vanadate, 0.015% (v/v) PEG20000, 10 μM adenosine-tri-phosphate (ATP), 0.3 μg/ml substrate, 1% (v/v) dimethylsulfoxide]. The concentration of Ins-R was adjusted depending of the activity of the enzyme lot and was chosen appropriate to have the assay in the linear range, typical concentrations were in the range of 10 pg/μL. The reaction was stopped by the addition of 5 μl of a solution of HTRF detection reagents (0.1 μM streptavidine-XLent and 1 nM PT66-Eu-Chelate, an europium-chelate labelled anti-phospho-tyrosine antibody from Perkin Elmer) in an aqueous EDTA-solution (80 mM EDTA, 0.2% (w/v) bovine serum albumin in 50 mM HEPES/NaOH pH 7.0).
The resulting mixture was incubated 1 h at 22° C. to allow the binding of the biotinylated phosphorylated peptide to the streptavidine-XLent and the PT66-Eu-Chelate. Subsequently the amount of phosphorylated substrate was evaluated by measurement of the resonance energy transfer from the PT66-Eu-Chelate to the streptavidine-XLent. Therefore, the fluorescence emissions at 620 nm and 665 nm after excitation at 350 nm was measured in a HTRF reader, e.g. a Rubystar (BMG Labtechnologies, Offenburg, Germany) or a ViewLux (Perkin-Elmer). The ratio of the emissions at 665 nm and at […] was taken as the measure for the amount of phosphorylated substrate. The data were normalised (enzyme reaction without inhibitor=0% inhibition, all other assay components but no enzyme=100% inhibition) and IC50 values were calculated by a 4 parameter fit using an inhouse software.

T1 sequence (P06213 1023-1298 limits assumed): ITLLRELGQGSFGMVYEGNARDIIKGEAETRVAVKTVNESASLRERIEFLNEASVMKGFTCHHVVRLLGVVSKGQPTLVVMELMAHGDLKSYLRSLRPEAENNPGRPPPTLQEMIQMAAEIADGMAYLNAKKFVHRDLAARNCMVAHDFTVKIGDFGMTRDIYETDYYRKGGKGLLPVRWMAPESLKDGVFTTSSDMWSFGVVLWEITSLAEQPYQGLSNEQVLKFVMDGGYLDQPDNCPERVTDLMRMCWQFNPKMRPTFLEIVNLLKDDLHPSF

In the case of `CCn1ncc2c(-c3ccc(NC(=O)Nc4cc(C(F)(F)F)ccc4F)c(F)c3)cncc21` [Example 11.2, 1-[4-(1-Ethyl-1H-pyrazolo[3,4-c]pyridin-4-yl)-2-fluoro-phenyl]-3-(2-fluoro-5-trifluoromethyl-phenyl)-urea], the “Selectivity vs. InsR” value was over 50fold.

In the case of `COCCn1ncc2c(-c3ccc(NC(=O)Nc4cccc(C(F)(F)F)c4)cc3)cncc21` [Example 12.1, 1-{4-[1-(2-Methoxy-ethyl)-1H-pyrazolo[3,4-c]pyridin-4-yl]-phenyl}-3-(3-trifluoromethyl-phenyl)-urea], the “Selectivity vs. InsR” value was over 50fold.

With `CN1CCN(Cc2ccc(NC(=O)Nc3ccc(-c4cncc5c4cnn5C)cc3F)cc2C(F)(F)F)CC1` [Example 13.6, 1-[2-Fluoro-4-(1-methyl-1H-pyrazolo[3,4-c]pyridin-4-yl)-phenyl]-3-[4-(4-methyl-piperazin-1-ylmethyl)-3-trifluoromethyl-phenyl]-urea], the “Selectivity vs. InsR” value is reported as over 50fold.

Turning to `Cn1ncc2c(-c3ccc(NC(=O)Nc4cc(C(F)(F)F)ccc4F)c(F)c3)cncc21` [Example 6.3, 1-[2-Fluoro-4-(1-methyl-1H-pyrazolo[3,4-c]pyridin-4-yl)-phenyl]-3-(2-fluoro-5-trifluoromethyl-phenyl)-urea], the “Selectivity vs. InsR” value is over 50fold.

For the molecule `Cc1ccc(F)c(NC(=O)Nc2ccc(-c3cncc4c3cnn4C)cc2)c1` [Example 1.3, 1-(2-Fluoro-5-methyl-phenyl)-3-[4-(1-methyl-1H-pyrazolo[3,4-c]pyridin-4-yl)-phenyl]-urea], the “Selectivity vs. InsR” value is on record as over 50fold.

For `CCn1ncc2c(-c3ccc(NC(=O)Nc4cccc(C(F)(F)F)c4)c(F)c3)cncc21` [Example 11.1, 1-[4-(1-Ethyl-1H-pyrazolo[3,4-c]pyridin-4-yl)-2-fluoro-phenyl]-3-(3-trifluoromethyl-phenyl)-urea], the “Selectivity vs. InsR” value is given as over 50fold.

Take `CCn1ncc2c(-c3ccc(NC(=O)Nc4cc(C(F)(F)F)ccc4F)cc3)cncc21` [Example 10.5, 1-[4-(1-Ethyl-1H-pyrazolo[3,4-c]pyridin-4-yl)-phenyl]3-(2-fluoro-5-trifluoromethyl-phenyl)-urea]: the “Selectivity vs. InsR” value is over 50fold.

Consider `Cn1ncc2c(-c3ccc(NC(=O)Nc4cc(C(C)(C)C)nn4-c4ccc(F)cc4)cc3)cncc21` [Example 15.7, 1-[5-tert-Butyl-2-(4-fluoro-phenyl)-2H-pyrazol-3-yl]-3-[4-(1-methyl-1H-pyrazolo[3,4-c]pyridin-4-yl)-phenyl]-urea], for which the “Selectivity vs. InsR” value is over 50fold.

`CC(C)c1cc(NC(=O)Nc2ccc(-c3cncc4c3cnn4C)cc2F)n(-c2cccc(F)c2)n1` [Example 15.2, 1-[2-Fluoro-4-(1-methyl-1H-pyrazolo[3,4-c]pyridin-4-yl)-phenyl]-3-[2-(3-fluoro-phenyl)-5-isopropyl-2H-pyrazol-3-yl]-urea]: the “Selectivity vs. InsR” value is reported as over 50fold.

As to `Cn1ncc2c(-c3ccc(NC(=O)Nc4cc(C(C)(C)C)nn4-c4ccccc4)cc3)cncc21` [Example 13.4, 1-(5-tert-Butyl-2-phenyl-2H-pyrazol-3-yl)-13-[4-(1-methyl-1H-pyrazolo[3,4-c]pyridin-4-yl)-phenyl]-urea], the “Selectivity vs. InsR” value is over 50fold.

Consider `COCCn1ncc2c(-c3ccc(NC(=O)Nc4cc(C(F)(F)F)ccc4F)c(F)c3)cncc21` [Example 12.5, 1-{2-Fluoro-4-[1-(2-methoxy-ethyl)-1H-pyrazolo[3,4-c]pyridin-4-yl]-phenyl}-3-(2-fluoro-5-trifluoromethyl-phenyl)-urea], for which the “Selectivity vs. InsR” value is listed as over 50fold.
